Literature values as cited in patent US20190374622A1, “COMPOSITION AND METHOD FOR CO-ADMINISTRATION WITH A GROWTH PROMOTANT” (OmniGen Research, LLC, priority 2014, published 2019).
Where a name gives a salt, the structure may show the parent alone. Read-outs that look alike come from different tables or passages of the source.

Tests used:
[1] = cattle, cited from earlier work
[2] = finishing swine; cited from earlier work
[3] = cited from earlier work; for increase in average daily weight gain: last 2 weeks
[4] = cited from earlier work
[5] = 300 mg per head per day, vs cattle that did not receive it

For `CC(CCc1ccc(O)cc1)NCC(O)c1ccc(O)cc1` (racemic) [Ractopamine hydrochloride, 4-[3-[[2-hydroxy-2-(4-hydroxyphenyl)ethyl]amino]butyl]phenol], the “increase in hot carcass weight” value [1, 5] is listed as 20 pounds, the “increase in live weight” value [1, 5] is listed as 22 pounds and the “carcass leanness and yield grade” value [1] is listed as “improves”. The “carcass quality, as measured by marbling score and quality grade” value [1] was “no effect”, the better feed efficiency [2] was 10% and the fat-free lean gain [2] was “improve”. For the same compound, the “increase in average daily gain” value [2] was 10%, the “increase in carcass weights” value [2] was 5 pounds and the meat quality [2] was “not affecting”. The “increase in average daily weight gain” value ([3]; hens) was 19%, the “increase in average daily weight gain” value ([3]; toms) was 13% and the “meat quality, including pH, color and tenderness” value ([3]; turkeys) was “no effect”.
For `CC(C)NC1CCn2c(=O)[nH]c3cccc(c32)C1O` (stereo not drawn) [Zilpaterol hydrochloride, 4,5,6,7-tetrahydro-7-hydroxy-6-(isopropylamino)imidazo[4,5,1-jk][1]benzazepin-2(1H)-one], the “improvement of feed efficiency” value ([4]; cattle, administered as Zilmax, one study (Intervet/Schering Plough 2010)) is listed as 3%, the “number of Yield Grade 4 and 5 cattle” value [4] is listed as “cut” and the “percentage of Yield Grade 1 cattle” value [4] is listed as “increase”.
